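Dose response: 5 concentrations. Exposure: 48 h. Format: 96-well plates. Endpoint: linear interpolation; highest concentration if not reached. GI50 is the concentration that inhibits growth by half.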 Active and inactive are the calls of the source. Cut-off read from the data, not from the text of the source: active = GI50 up to about 1.1 µM and inactive = higher.
Columns and labels:
Assay in all cases: inhibition of tumour cell growth, NCI panel, 48 h
[1] = tested on: CAKI-1
[2] = tested on: Malme-3M
[3] = tested on: SK-MEL-28
[4] = tested on: HL-60
[5] = tested on: NCI-H226
[6] = tested on: TK-10
[7] = tested on: OVCAR-3
[8] = tested on: UACC-62
[9] = tested on: SNB-78
[10] = tested on: CCRF-CEM
[11] = tested on: COLO 205
[12] = tested on: RXF 631
[13] = tested on: HCC 2998
[14] = tested on: NCI-H522
[15] = tested on: 786-0
[16] = tested on: HCT-15
[17] = tested on: LXFL 529
[18] = tested on: HCT-116
[19] = tested on: IGROV-1
[20] = tested on: K562
[21] = tested on: SF-295
[22] = tested on: SF-539
[23] = tested on: UO-31
[24] = tested on: U-251
[25] = tested on: SK-MEL-5
[26] = tested on: HOP-18
[27] = tested on: M19-MEL
[28] = tested on: DLD-1
[29] = tested on: SK-OV-3
[30] = tested on: SF-268
[31] = tested on: MOLT-4
[32] = tested on: SW-620
[33] = tested on: UACC-257
[34] = tested on: SNB-19
[35] = tested on: SR
[36] = tested on: OVCAR-5
[37] = tested on: NCI-H23
[38] = tested on: OVCAR-8
[39] = tested on: HOP-92
[40] = tested on: ACHN
[41] = tested on: HOP-62
[42] = tested on: A498
[43] = tested on: DMS-273
[44] = tested on: NCI-H460
[45] = tested on: SK-MEL-2
[46] = tested on: KM12
[47] = tested on: A549
[48] = tested on: OVCAR-4
[49] = tested on: DMS-114
[50] = tested on: RPMI-8226
[51] = tested on: SN12C
[52] = tested on: M14
[53] = tested on: HT-29
[54] = tested on: SNB-75
[55] = tested on: LOX IMVI
[56] = tested on: EKVX
[57] = tested on: RXF 393
[58] = tested on: KM-20L2

Cc1ccc(N2C(=O)/C(=C/c3ccc(N(CCC#N)CCC#N)cc3C)N=C2c2cc([N+](=O)[O-])ccc2Cl)cc1
GI50 [1]: 56 µM (inactive) | GI50 [2]: > 100 µM (inactive) | GI50 [3]: > 100 µM (inactive) | GI50 [4]: > 100 µM (inactive) | GI50 [5]: > 100 µM (inactive) | GI50 [6]: > 100 µM (inactive) | GI50 [7]: > 100 µM (inactive) | GI50 [8]: > 100 µM (inactive) | GI50 [9]: > 100 µM (inactive) | GI50 [10]: > 100 µM (inactive) | GI50 [11]: > 100 µM (inactive) | GI50 [12]: > 100 µM (inactive) | GI50 [13]: > 100 µM (inactive) | GI50 [14]: > 100 µM (inactive) | GI50 [15]: > 100 µM (inactive) | GI50 [16]: > 100 µM | GI50 [17]: > 100 µM (inactive) | GI50 [18]: > 100 µM (inactive) | GI50 [19]: > 100 µM (inactive) | GI50 [20]: > 100 µM (inactive) | GI50 [21]: > 100 µM (inactive) | GI50 [22]: > 100 µM (inactive) | GI50 [23]: > 100 µM (inactive) | GI50 [24]: > 100 µM (inactive) | GI50 [25]: > 100 µM (inactive) | GI50 [26]: > 100 µM (inactive) | GI50 [27]: > 100 µM (inactive) | GI50 [28]: > 100 µM (inactive) | GI50 [29]: > 100 µM (inactive) | GI50 [30]: > 100 µM (inactive) | GI50 [31]: 91.2 µM (inactive) | GI50 [32]: > 100 µM (inactive) | GI50 [33]: > 100 µM (inactive) | GI50 [34]: > 100 µM (inactive) | GI50 [35]: 58.2 µM (inactive) | GI50 [36]: > 100 µM (inactive) | GI50 [37]: > 100 µM (inactive) | GI50 [38]: > 100 µM (inactive) | GI50 [39]: > 100 µM (inactive) | GI50 [40]: > 100 µM (inactive) | GI50 [41]: > 100 µM (inactive) | GI50 [42]: > 100 µM (inactive) | GI50 [43]: > 100 µM (inactive) | GI50 [44]: > 100 µM (inactive) | GI50 [45]: > 100 µM (inactive) | GI50 [46]: > 100 µM (inactive) | GI50 [47]: > 100 µM (inactive) | GI50 [48]: > 100 µM (inactive) | GI50 [49]: 75.2 µM (inactive) | GI50 [50]: > 100 µM (inactive) | GI50 [51]: > 100 µM (inactive) | GI50 [52]: > 100 µM (inactive) | GI50 [53]: > 100 µM (inactive) | GI50 [54]: > 100 µM (inactive)

CC(C)(C)C1=CC(CCC(=O)Nc2ccccc2[N+](=O)[O-])=NC(S)N1 (configuration not stated)
GI50 [1]: > 100 µM (inactive) | GI50 [2]: > 100 µM (inactive) | GI50 [3]: > 100 µM (inactive) | GI50 [4]: > 100 µM (inactive) | GI50 [55]: > 100 µM (inactive) | GI50 [5]: > 100 µM (inactive) | GI50 [6]: > 100 µM (inactive) | GI50 [7]: > 100 µM (inactive) | GI50 [8]: > 100 µM (inactive) | GI50 [9]: > 100 µM (inactive) | GI50 [10]: > 100 µM (inactive) | GI50 [11]: > 100 µM (inactive) | GI50 [12]: > 100 µM (inactive) | GI50 [13]: > 100 µM (inactive) | GI50 [15]: > 100 µM (inactive) | GI50 [56]: > 100 µM (inactive) | GI50 [16]: > 100 µM | GI50 [17]: > 100 µM (inactive) | GI50 [18]: > 100 µM (inactive) | GI50 [19]: > 100 µM (inactive) | GI50 [20]: > 100 µM (inactive) | GI50 [21]: > 100 µM (inactive) | GI50 [22]: > 100 µM (inactive) | GI50 [23]: > 100 µM (inactive) | GI50 [24]: > 100 µM (inactive) | GI50 [25]: > 100 µM (inactive) | GI50 [26]: > 100 µM (inactive) | GI50 [27]: > 100 µM (inactive) | GI50 [57]: > 100 µM (inactive) | GI50 [28]: > 100 µM (inactive) | GI50 [29]: > 100 µM (inactive) | GI50 [30]: > 100 µM (inactive) | GI50 [31]: > 100 µM (inactive) | GI50 [32]: > 100 µM (inactive) | GI50 [33]: > 100 µM (inactive) | GI50 [34]: > 100 µM (inactive) | GI50 [35]: > 100 µM (inactive) | GI50 [36]: > 100 µM (inactive) | GI50 [37]: > 100 µM (inactive) | GI50 [38]: > 100 µM (inactive) | GI50 [39]: > 100 µM (inactive) | GI50 [40]: > 100 µM (inactive) | GI50 [41]: > 100 µM (inactive) | GI50 [44]: > 100 µM (inactive) | GI50 [45]: > 100 µM (inactive) | GI50 [46]: > 100 µM (inactive) | GI50 [47]: > 100 µM (inactive) | GI50 [48]: > 100 µM (inactive) | GI50 [58]: > 100 µM (inactive) | GI50 [49]: > 100 µM (inactive) | GI50 [51]: > 100 µM (inactive) | GI50 [52]: > 100 µM (inactive) | GI50 [53]: > 100 µM (inactive)

Source: ChEMBL document CHEMBL1201862, “PubChem BioAssay data set” (2004)
